Reference: BindingDB's records for doi:10.1124/jpet.102.036376 (University of Arkansas, 2002)

What was measured:
[1] = target: Muscarinic acetylcholine receptor M3 (Rattus norvegicus, UniProt P08483)
[2] = target: T1, Muscarinic acetylcholine receptor M1 (Rattus norvegicus, UniProt P08482)
T1 sequence (P08482 whole entry): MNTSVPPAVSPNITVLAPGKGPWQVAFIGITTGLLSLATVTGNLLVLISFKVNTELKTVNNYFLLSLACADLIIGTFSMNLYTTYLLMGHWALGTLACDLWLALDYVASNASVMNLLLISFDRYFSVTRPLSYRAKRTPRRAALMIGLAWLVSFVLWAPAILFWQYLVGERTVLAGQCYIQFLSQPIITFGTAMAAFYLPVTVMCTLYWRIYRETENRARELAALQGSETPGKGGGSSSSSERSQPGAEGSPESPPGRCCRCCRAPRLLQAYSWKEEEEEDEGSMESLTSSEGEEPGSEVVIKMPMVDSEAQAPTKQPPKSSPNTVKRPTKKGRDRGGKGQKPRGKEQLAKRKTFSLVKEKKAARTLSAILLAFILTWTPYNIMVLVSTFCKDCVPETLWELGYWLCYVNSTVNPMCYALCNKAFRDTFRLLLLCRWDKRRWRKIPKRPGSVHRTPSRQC

[3] = target: T2, Muscarinic acetylcholine receptor M4 (Homo sapiens, UniProt P08173)
T2 sequence (P08173 whole entry): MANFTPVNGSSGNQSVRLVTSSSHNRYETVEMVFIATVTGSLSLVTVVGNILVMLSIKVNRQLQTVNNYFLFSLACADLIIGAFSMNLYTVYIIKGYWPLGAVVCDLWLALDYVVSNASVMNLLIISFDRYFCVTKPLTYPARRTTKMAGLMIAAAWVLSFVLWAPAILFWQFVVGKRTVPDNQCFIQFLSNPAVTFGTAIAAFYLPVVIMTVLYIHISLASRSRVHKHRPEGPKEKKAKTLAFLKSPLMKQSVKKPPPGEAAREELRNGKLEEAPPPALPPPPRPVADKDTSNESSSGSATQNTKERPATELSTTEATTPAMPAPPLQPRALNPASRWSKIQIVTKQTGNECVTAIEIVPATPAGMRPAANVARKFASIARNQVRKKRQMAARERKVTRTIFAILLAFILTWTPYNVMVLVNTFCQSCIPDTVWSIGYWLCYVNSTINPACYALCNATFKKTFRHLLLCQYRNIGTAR

[4] = target: T3, Muscarinic acetylcholine receptor M5 (Homo sapiens, UniProt P08912)
T3 sequence (P08912 whole entry): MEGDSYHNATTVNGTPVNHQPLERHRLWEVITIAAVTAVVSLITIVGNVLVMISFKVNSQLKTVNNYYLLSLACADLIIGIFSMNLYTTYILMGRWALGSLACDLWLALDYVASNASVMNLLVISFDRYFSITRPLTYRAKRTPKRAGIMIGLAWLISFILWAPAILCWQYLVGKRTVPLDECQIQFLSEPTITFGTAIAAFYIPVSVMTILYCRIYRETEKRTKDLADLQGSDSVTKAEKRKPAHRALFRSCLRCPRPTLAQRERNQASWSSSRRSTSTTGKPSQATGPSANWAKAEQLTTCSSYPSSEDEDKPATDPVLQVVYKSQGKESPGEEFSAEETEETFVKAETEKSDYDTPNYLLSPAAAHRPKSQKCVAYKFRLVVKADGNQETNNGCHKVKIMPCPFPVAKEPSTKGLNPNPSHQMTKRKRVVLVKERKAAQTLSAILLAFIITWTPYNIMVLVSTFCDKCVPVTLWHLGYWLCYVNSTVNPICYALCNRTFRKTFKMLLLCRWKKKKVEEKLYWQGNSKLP

Measured: Ki

Sequence of Muscarinic acetylcholine receptor M3 (P08483 whole entry): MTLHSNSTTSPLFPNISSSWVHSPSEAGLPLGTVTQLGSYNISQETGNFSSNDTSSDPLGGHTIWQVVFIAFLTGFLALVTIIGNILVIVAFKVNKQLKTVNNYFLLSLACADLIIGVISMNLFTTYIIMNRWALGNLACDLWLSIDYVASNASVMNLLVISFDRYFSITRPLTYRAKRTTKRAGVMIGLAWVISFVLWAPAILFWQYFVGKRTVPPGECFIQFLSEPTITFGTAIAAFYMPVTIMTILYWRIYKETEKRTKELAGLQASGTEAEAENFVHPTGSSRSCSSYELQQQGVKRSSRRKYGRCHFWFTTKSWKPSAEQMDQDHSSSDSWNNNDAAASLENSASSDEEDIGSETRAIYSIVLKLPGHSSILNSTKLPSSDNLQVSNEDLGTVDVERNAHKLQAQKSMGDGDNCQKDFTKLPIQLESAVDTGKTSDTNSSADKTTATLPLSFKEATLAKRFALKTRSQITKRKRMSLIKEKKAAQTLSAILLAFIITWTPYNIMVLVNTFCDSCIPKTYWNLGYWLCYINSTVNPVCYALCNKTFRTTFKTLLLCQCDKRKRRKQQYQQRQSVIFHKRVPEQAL

CC(CCC(=O)NCCS(=O)(=O)O)C1CCC2C3CCC4CC(O)CCC4(C)C3CCC12C (stereo unspecified) [NSC_10595]
> 10 µM: [1] | [2]

CC(CCC(=O)NCC(=O)O)C1CCC2C3CCC4CC(O)CCC4(C)C3CCC12C (stereo unspecified) [CAS_115245]
> 10 µM: all assays above
